In publication PMC10974743, “Design, Synthesis, and Biological Evaluation of Novel Phenoxy Acetic Acid Derivatives as Selective COX-2 Inhibitors Coupled with Comprehensive Bio-Pharmacological Inquiry, Histopathological Profiling, and Toxicological Scrutiny” (Molecules, 2024):
“Also recorded” adds a separate entry of the source. Marks after values point to notes of the source that are not given here.

What was measured:
[1] = system: nociceptive responses on hot plate; test: Hot plate latency test (analgesic activity); format: in vivo, rats; details: for Hot plate latency period: plate 50 °C, mean ± SD, n = 6
Protocol: The hot plate latency test was performed according to the following procedures (Supplementary Materials, page 54). […]
In summary, thirty rats
The normal control group received 1% CMC, while the remaining groups were administered their respective reference or test compounds. Each rat was gently positioned on a heated plate set at 50 ◦C. The latency period for nociceptive responses, such as paw licking or jumping off the hot plate, was recorded at 30-, 60-, 90-, and 120 minutes post-administration of the reference drugs, test […]

human COX-2 = target: T1, human COX-2 (Homo sapiens, UniProt P35354); test: In vitro COX-2 inhibition assay (Cayman colorimetric COX inhibitor screening kit); details: for IC50: COX-2 IC50, mean ± SEM, n = 3
T1 sequence (P35354 18-604): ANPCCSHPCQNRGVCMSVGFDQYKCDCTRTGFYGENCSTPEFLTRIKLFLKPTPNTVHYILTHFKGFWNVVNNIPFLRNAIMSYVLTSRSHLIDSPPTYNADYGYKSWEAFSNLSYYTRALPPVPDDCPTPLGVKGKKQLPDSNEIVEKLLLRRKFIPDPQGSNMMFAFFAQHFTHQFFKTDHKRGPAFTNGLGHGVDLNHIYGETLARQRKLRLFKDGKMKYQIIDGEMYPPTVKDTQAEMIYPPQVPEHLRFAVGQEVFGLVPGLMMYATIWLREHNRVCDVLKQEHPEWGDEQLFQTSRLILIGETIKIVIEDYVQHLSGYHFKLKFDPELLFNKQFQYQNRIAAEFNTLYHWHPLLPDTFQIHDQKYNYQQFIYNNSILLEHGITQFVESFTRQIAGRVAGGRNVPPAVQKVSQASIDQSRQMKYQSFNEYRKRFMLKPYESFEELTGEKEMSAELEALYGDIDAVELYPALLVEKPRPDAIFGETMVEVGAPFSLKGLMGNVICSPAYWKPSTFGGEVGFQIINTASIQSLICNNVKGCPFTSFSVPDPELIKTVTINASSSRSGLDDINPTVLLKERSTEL
Protocol: (§7) The in vitro enzyme assays were performed at the Biochemistry Department, Cairo
(§8) General Hospital, Egypt. Cayman® colorimetric COX (ovine) inhibitor screening assay kit (Item
(§9) enzymes in presence of all newly compounds. Generally, this kit is dependent on the reductive
(§10) reaction of COX. A specific antibody binds to PGH2 produced by COX and is further quantified
(§11) by the ELISA technique as previously reported. After that, the selectivity index (SI) was calculated
as the following equation:
𝐒𝐞𝐥𝐞𝐜𝐭𝐢𝐯𝐢𝐭𝐲 𝐢𝐧𝐝𝐞𝐱 (𝐒𝐈) = 𝐈𝐂₅₀𝐨𝐟 𝐂𝐎𝐗 − 𝟏

[2] = system: carrageenan-induced paw edema; test: Carrageenan paw edema test (paw thickness, paw weight); details: for Paw thickness difference: oral; for Paw thickness difference / Paw Weight Increase: mean ± SD, n = 6; for Percentage of inhibition of paw thickness / Inhibition of percentage of paw weight increase: vs carrageenan group; for Paw Weight Increase: right vs left paw, after 5 h
Protocol: The carrageenan paw edema test was conducted following established procedures as detailed (Supplementary Materials, page 53).
The carrageenan paw edema test was conducted following established procedures. In summary, seventy-two rats were randomly assigned to twelve groups, each comprising six rats.
These groups included normal controls, carrageenan controls (both receiving the vehicle; 1%
Acute inflammation was induced in the right hind paws of all rats one hour after oral administration of the respective compounds or vehicle. This was achieved by injecting a freshly prepared 0.1 mL carrageenan suspension (1% in normal saline) subplantarly into the right hind paw, except for the normal control group, which received a saline injection. Paw thickness was measured hourly (Ct) until the fifth hour (C5) post-carrageenan injection (C0). The hourly increase in paw thickness (paw thickness difference) was calculated by subtracting the initial measurement (C0) from the thickness at each hour (Ct), and the results were presented as the mean increase in paw thickness (mm). To evaluate anti-inflammatory effects, the percentage of inhibition for each standard and test compound was determined using the formula: percentage of inhibition (%) = [(Paw thickness difference of carrageenan group - Paw thickness difference of treated)/ Paw thickness difference of carrageenan group] × 100. […] The paws were then excised and weighed (both left and right). The percentage of weight increase between the left and right paws of each animal was calculated using the equation: Percentage of weight increase = [(Weight of the right paw - Weight of the left paw) / Weight of the left paw] ×100.

PGE2 = PGE2 content of paw exudate by ELISA, carrageenan paw edema model; format: in vivo, Sprague Dawley rats; details: vs carrageenan group
Protocol: (§1) ELISA assessment assays were conducted as cited (Supplementary Materials, page 53).
(§2) In-vivo anti-inflammatory activity […]
(§3) cervical dislocation. […] The percentage
(§4) Weight of the left paw] ×100.
(§5) Assessment of inflammatory biomarkers using ELISA […]
(§6) content, using enzyme -linked immunosorbent assay (ELISA). The ELISA kits were purchased from CLOUD -CLONE CORP (CCC, USA) (Cat# SEA133Ra) and MyBioSource company (British Columbia, Canada) (Cat# MBS730592) respectively, and the assays were performed following the manufacturer' s instructions. Additionally, the protein content of the exudates was determined using the Bradford method.

gastric mucosa = test: Evaluation of ulcerogenic effects (macroscopic scores and gastric histopathology); details: for Gastric mucosa histopathological finding: H&E staining; for Ulcer Number Score / Ulcer Severity Score: mean ± SD; for Ulcer Number Score: n = 6; for Ulcer Severity Score: n = 6, scale 0 to 5
Protocol: The assessment of ulcerogenic effects was conducted following established procedures [42, 57]
Following the experimental period, the animals were euthanized using pentobarbital sodium (100 mg/kg), and blood was collected via jugular vein exsanguination for later evaluation of liver and kidney function, and subsequently sacrificed by cervical dislocation. […] Following this, the animals' stomachs were removed, inflated, and opened along the greater curvature to evaluate ulcerogenic effects.
B: Ulcer lesion severity scoring system
2.5 More than 10 small ulcers
3 1 marked ulcer plus 0 to 4 small ulcers
3.5 1 marked ulcer plus 5 or more small ulcers
4 2 marked ulcers plus 0 to 4 small ulcers
4.5 2 marked ulcers plus 5 or more small ulcers
5 3 or more marked ulcers
The statistical analysis of the data was conducted using GraphPad Prism 9.5.1 Demo
(GraphPad Software, San Diego, CA). One -way analysis of variance (ANOVA) was utilized to
evaluate differences among the various groups, except for paw edema volume, which un derwent
analysis using two -way ANOVA. Post -hoc analysis was performed using Tukey's multiple
significance set at P < 0.05

ovine COX-1 = target: T2, ovine COX-1 (Ovis aries, UniProt P05979); test: In vitro COX-1 inhibition assay (Cayman colorimetric COX inhibitor screening kit)
T2 sequence (P05979 25-600): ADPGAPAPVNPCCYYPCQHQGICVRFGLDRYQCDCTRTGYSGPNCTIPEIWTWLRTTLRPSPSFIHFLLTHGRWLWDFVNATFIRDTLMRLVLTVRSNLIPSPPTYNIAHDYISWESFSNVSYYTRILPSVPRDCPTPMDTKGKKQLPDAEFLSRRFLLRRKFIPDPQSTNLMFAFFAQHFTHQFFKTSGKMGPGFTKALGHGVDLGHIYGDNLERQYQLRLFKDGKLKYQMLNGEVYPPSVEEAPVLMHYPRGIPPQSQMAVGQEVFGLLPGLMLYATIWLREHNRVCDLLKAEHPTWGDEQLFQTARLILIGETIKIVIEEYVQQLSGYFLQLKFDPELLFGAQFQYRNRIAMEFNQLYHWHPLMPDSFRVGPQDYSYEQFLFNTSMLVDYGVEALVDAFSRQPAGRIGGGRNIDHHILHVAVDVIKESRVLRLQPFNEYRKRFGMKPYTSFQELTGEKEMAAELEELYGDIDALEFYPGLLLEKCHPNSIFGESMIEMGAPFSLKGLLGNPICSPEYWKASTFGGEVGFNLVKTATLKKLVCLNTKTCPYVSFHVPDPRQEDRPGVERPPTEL
Protocol: as §7, §8, §9, §10, §11
as the following equation:
𝐒𝐞𝐥𝐞𝐜𝐭𝐢𝐯𝐢𝐭𝐲 𝐢𝐧𝐝𝐞𝐱 (𝐒𝐈) = 𝐈𝐂₅₀𝐨𝐟 𝐂𝐎𝐗 − 𝟏

[3] = Assessment of liver and kidney function (serum ALT, AST, creatinine, urea); format: in vivo, rats; design: Urea: unit not given here; details: mean ± SD; for ALT / AST / AST/ALT / Urea: n = 6; for Creatinine: n = 6, in mg/dL (unit assumed)
Protocol: These assessments were conducted following the manufacturer’s instructions (Supplementary Materials, page 55).
In-vivo anti-inflammatory activity
as §3, §4
Assessment of inflammatory biomarkers using ELISA

TNF-α = TNF-α content of paw exudate by ELISA, carrageenan paw edema model; format: in vivo, Sprague Dawley rats; details: vs carrageenan group
Protocol: as §1, §2, §3, §4, §5, §6

[4] = system: paw tissue, carrageenan paw edema model; test: Histopathological examination of paws, inflammatory cell infiltration score; format: in vivo, rats; details: for Paw histopathological finding: H&E staining, carrageenan paw edema; for Reduction in inflammatory cell infiltration score: vs carrageenan group, paw, 5 hours
Protocol: The histopathological assessments were performed according to the following procedures (Supplementary Materials, page 54). […]
Histopathological examination
Thirty-six rats were separated into six groups of six rats each for histological assessment […]
groupings consisted of a control group, a carrageenan group, two groups for the reference drugs […]
protocols that were utilized in the in-vivo anti-inflammatory activity test were used. After a duration of 5 hours, the animals were euthanized, and their left paws were amputated. The paws were preserved in 10% neutral buffered formalin, trimmed, washed, dehydrated in increasing concentrations of ethyl alcohol, clarified in xylene, and ultimately embedded in paraffin. They were then sliced into 4-6µ thick slices, stained with Hematoxylin and Eosin, and examined under a light microscope. A scoring system was used to evaluate the degree of inflammation, dividing it into six categories ranging from 0 indicating no inflammation to 5 indicating severe inflammation.
Each score corresponded to a certain level of inflammation: 0 for no inflammation, 1 for mild inflammation, 2 for mild to moderate inflammation, 3 for moderate inflammation, 4 for moderate to severe inflammation, and 5 for severe inflammation.

Row | SMILES | Hot plate latency period ([1]; 30 min post-administration) | Hot plate latency period ([1]; 60 min post-administration) | Hot plate latency period ([1]; 90 min post-administration) | Increase in latency period ([1]; 120 min mark) [%] | Hot plate latency period ([1]; 120 min post-administration) | Paw thickness difference ([2]; 1st h after carrageenan) [mm] | Percentage of inhibition of paw thickness ([2]; 1st h) [%] | Paw thickness difference ([2]; 2nd h after carrageenan) [mm] | Percentage of inhibition of paw thickness ([2]; 2nd h) [%] | Paw thickness difference ([2]; 3rd h after carrageenan) [mm] | Percentage of inhibition of paw thickness ([2]; 3rd h) [%] | Paw thickness difference ([2]; 4th h after carrageenan) [mm] | Percentage of inhibition of paw thickness ([2]; 4th h) [%] | Paw thickness difference ([2]; 5th h after carrageenan) [mm] | Paw Weight Increase [2] | Reduction of PGE2 exudate content (PGE2) [%] | Gastric mucosa histopathological finding (gastric mucosa) | Ulcer Number Score (gastric mucosa) | Ulcer Severity Score (gastric mucosa) | ALT [3] [IU/L] | also measured
1 | O=C(O)COc1ccc(Br)cc1C=NNC(=O)c1ccc(Cl)cc1 [Compound 5f, 2-(4-Bromo-2-((2-(4-chlorobenzoyl)hydrazineylidene)methyl)phenoxy)acetic acid] | 8.99 ± 0.38 ^abc | 10.59 ± 0.3 ^abc | 12.48 ± 0.65 ^ab | 49.50 | 14.15 ± 0.38 ^a | 0.83 ± 0.15 | 58.11 | 1.65 ± 0.29 | 49.85 | 2.32 ± 0.17 | 45.05 | 2.68 ± 0.12 | 46.9 | 2.84 ± 0.13 | 29.85 ± 3.88 ^ab % | 60.58 | normal histological structure of gastric mucosa; also recorded: normal histological structure of the stomach mucosa | 0.50 ± 0.55 ^d | 0.33 ± 0.41 ^d | 92.76 ± 3.83 | Increase in latency period ([1]; 30 min mark): 39.43%; SI (COX-2 selectivity index) (human COX-2; COX-1 (IC50)/COX-2 (IC50)): 133.34; IC50 (human COX-2): 60 ± 10 nM; Inhibition of percentage of paw weight increase [2]: 68.26%; IC50 (ovine COX-1): 8 ± 0.2 µM; AST [3]: 93.69 ± 5.26 IU/L; AST/ALT [3]: 1.01 ± 0.08; Urea [3]: 26.37 ± 2.48; Creatinine [3]: 0.67 ± 0.04; Reduction of TNF-α exudate content (TNF-α): 61.04%; Paw histopathological finding [4]: infiltration by a few numbers of inflammatory cells mainly eosinophils and lymphocytes; also recorded: dermal edema with limited infiltration of inflammatory cells; Reduction in inflammatory cell infiltration score [4]: 70.37%
2 | O=C(O)COc1ccc(Br)cc1C=NNC(=O)Cc1ccccc1 [Compound 7b, 2-(4-Bromo-2-((2-(2-phenylacetyl)hydrazineylidene)methyl)phenoxy)acetic acid] | 8.88 ± 0.29 ^ac | 10.35 ± 0.35 ^ac | 12.09 ± 0.29 ^ac | 44.90 | 13.71 ± 0.31 ^a | 0.65 ± 0.16 | 67.23 | 1.08 ± 0.21 | 67.11 | 1.64 ± 0.13 | 61.23 | 1.90 ± 0.19 | 62.42 | 1.95 ± 0.19 | 33.07 ± 1.88 ^ab % | 57.07 | infiltration of gastric mucosa by a few numbers of mononuclear inflammatory cells | 0.67 ± 0.52 | 0.42 ± 0.38 | 89.13 ± 8.53 | Increase in latency period ([1]; 30 min mark): 37.67%; IC50 (human COX-2): 60 ± 10 nM; Inhibition of percentage of paw weight increase [2]: 64.84%; IC50 (ovine COX-1): 5.93 ± 0.12 µM; AST [3]: 97.59 ± 6.19 IU/L; AST/ALT [3]: 1.10 ± 0.12; Urea [3]: 27.16 ± 1.53; Creatinine [3]: 0.68 ± 0.05; Reduction of TNF-α exudate content (TNF-α): 64.88%; Paw histopathological finding [4]: dermal infiltration by a moderate number of mononuclear inflammatory cells; also recorded: moderate infiltration of mononuclear inflammatory cells in the dermis; Reduction in inflammatory cell infiltration score [4]: 62.96%
3 | Cc1ccc(-c2cc(C(F)(F)F)nn2-c2ccc(S(N)(=O)=O)cc2)cc1 [Celecoxib, celecoxib, reference compound] | 8.39 ± 0.22 ^a | 9.95 ± 0.23 ^a | 11.63 ± 0.60 ^a | 46.70 | 13.88 ± 0.41 ^a | 1.4 ± 0.38 | 29.31 | 2.36 ± 0.51 | 28.34 | 2.83 ± 0.43 | 33 | 3.01 ± 0.57 | 40.39 | 3.10 ± 0.23 | 29.95 ± 2.20 ^ab % | 60.16 | ulcer formation with eroded gastric mucosa; also recorded: developed ulcers with degraded gastric mucosa | 1.00 ± 0.63 | 0.75 ± 0.52 | 92.94 ± 5.00 | Percentage of inhibition of paw thickness ([2]; 5th h): 41.65%; AST [3]: 101.23 ± 10.04 IU/L; Urea [3]: 26.28 ± 3.11; Creatinine [3]: 0.73 ± 0.03; Reduction of TNF-α exudate content (TNF-α): 63.52%; Paw histopathological finding [4]: dermal infiltration by high number of inflammatory cells mainly neutrophils and lymphocytes; also recorded: significant dermal infiltration by a large quantity of inflammatory cells
